Where “and” joins values, the source holds several entries; their conditions need not be identical. Equal values may be shown once.

By MIC is commonly meant the lowest concentration found to suppress growth. Low values mean inhibition by little substance, high ones a need for much substance.

In data set [1] the test system is MRSA. The data set can be described thus: Zones of inhibition on cation adjusted Mueller Hinton agar (Example 2). The format is cell-based, methicillin-resistant Staphylococcus aureus. The note with it: 50 μL drop on MRSA lawn, 37° C., 24 hours. As for the experimental part:
(§1) A compound was screened for its ability to create zones of inhibition on cation adjusted Mueller Hinton agar. It is believed that the compound of Example 2 may be represented by the structure disclosed in FIG. 4H. To perform this test, lawns of methicillin-resistant Staphylococcus aureus (MRSA) or Pseudomonas aeruginosa ATCC 27853 were made on cation adjusted Mueller Hinton agar using standard microbiological techniques. Immediately after plating bacteria on agar, a 50 μL drop of the compound was placed onto the agar surface. The compound was tested in duplicate at 100 μg/mL, 50 μg/mL, 25 μg/mL and 10 μg/mL. All plates were incubated at 37° C. for 24 hours.

Data set [2] has as its system Pseudomonas aeruginosa ATCC 27853. The data set is described as above. The format is cell-based. The note with it: 50 μL drop on P. aeruginosa lawn, 37° C., 24 hours. As for the experimental part:
as §1

Data set [3] concerns MRSA. The data set is described as follows: MIC, CLSI M26-A microdilution (Example 2). The note with it: Staphylococcus aureus, 10^5 to 10^2 cells/mL in 24 hours. The format is cell-based, methicillin-resistant Staphylococcus aureus. How it is done:
(§2) The second test determined the minimum inhibitory concentration (MIC) of the compound against MRSA and P. aeruginosa ATCC 27853. […] This definition was consistent with the Clinical and Laboratory Standards Institute (CLSI). More specifically, the microdilution method as outlined in the M26-A CLSI guideline was used. All tests were performed with cation adjusted Mueller Hinton broth.
Background: In broth dilution the organism is exposed to a series of concentrations in liquid medium.

The subject of another data set is P. aeruginosa ATCC 27853. The data set is described as follows: MIC, CLSI M26-A microdilution (Example 2). The format is cell-based. The note with it: Pseudomonas aeruginosa, ATCC27853, 10^5 to 10^2 cells/mL in 24 hours. How it is done:
as §2

The test system of data set [4] is MRSA biofilm. The data set can be described thus: MBEC assay (Calgary Biofilm Device), 100% eradication (Example 2). The format is cell-based, methicillin-resistant Staphylococcus aureus. The note with it: eradicate 100% of detectable biofilm, listed as PBC-51. As for the experimental part: (§3) In addition to determining the MIC, the minimum biofilm eradication concentration (MBEC) of PBC-51 was also determined. The MBEC was determined using the MBEC assay, formerly known as the Calgary Biofilm Device, developed by Innovotech. In this instance, the MBEC was defined as the amount of antimicrobial required to eradicate 100% of detectable biofilm after being grown in the MBEC device. To grow the biofilms within this device, 150 μL of solution containing a concentration of 10^5 cells/mL were inoculated into each well of a 96-well plate. A lid containing 96 pegs was placed onto the plate and incubated for 24 hours at 37° C. while being shaken at 110 rpm. Biofilms developed on the surface of the polystyrene pegs within the 96-well plate. After 24 hours, each peg contained between 10^5 and 10^6 cells in well-established biofilms. The lid with pegs was transferred to a 96-well plate that contained 200 μL of varying concentrations of the compound and was incubated at 37° C. for an additional 24 hours. The plate was then sonicated, and the biofilms quantified using a 10-fold dilution series to determine the MBEC.

Data set [5] deals with P. aeruginosa ATCC 27853 biofilm. The description is as above. The format is cell-based, Pseudomonas aeruginosa. The note with it: eradicate 100% of detectable biofilm, listed as PBC-51. As for the experimental part:
as §3

Data set [6] relates to MRSA biofilm. The data set is described as follows: EBEC on PEEK membranes, 100% eradication (Example 2). The format is cell-based, methicillin-resistant Staphylococcus aureus. The note with it: PEEK membrane, eradicate all detectable amounts (100%), listed as PBC-51. As for the experimental part:
(§4) The fourth test that was performed was the effective biofilm eradication concentration (EBEC). To determine the EBEC, biofilms of MRSA and P. aeruginosa ATCC 27853 were grown on the surface of PEEK membranes using a previously established protocol. Briefly, 500 mL of brain heart infusion (BHI) broth were inoculated with 10^5 cells/mL of MRSA or P. aeruginosa. BHI broth was placed into a membrane biofilm reactor and placed on a hot plate set at 34° C. for 24 hours with a stir bar rotating at 130 rpm. Following the initial 24-hour growth period, a 10% BHI broth solution was flowed through the reactor at a rate of 6.944 mL/min for another 24 hours. After 48 hours of growth, each PEEK membrane had biofilm growth on it. In this experiment, there were ˜2×10^11 cells of MRSA per PEEK membrane and −2×10^10 cells of P. aeruginosa per PEEK membrane. The EBEC was defined as the concentration of the compound that was required to eradicate all detectable amounts (100%) of bacteria within the biofilms.

Data set [7] has as its system P. aeruginosa ATCC 27853 biofilm. The description is as above. The format is cell-based, Pseudomonas aeruginosa. The note with it: PEEK membrane, eradicate all detectable amounts (100%), listed as PBC-51. How it is done:
as §4

In the next data set the test system is Columbia blood agar. The data set is described as follows: Hemolytic nature on Columbia blood agar. The format is cell-based. The note with it: 100 μg/mL, 50 μg/mL and 25 μg/mL; 20 μL on Columbia blood agar, 37° C., 24 hours. As for the experimental part:
In addition to determining the antimicrobial efficacy of the compound, an initial test was performed to determine its hemolytic nature. To do so, the compound was suspended in concentrations of 100 μg/mL, 50 μg/mL and 25 μg/mL. Twenty μL of each concentration was placed onto the surface of Columbia blood agar and incubated at 37° C. for 24 hours.

The subject of data set [8] is biofilms of MRSA and P. aeruginosa. The data set can be described thus: Visual observation of biofilm dispersal from PEEK membranes. The format is cell-based. The note with it: 300, 200 and 100 μg/mL. How it is done:
Initial tests based on visual observation were performed to determine the ability of the compound to disperse biofilms. This was done by observing the biofilms of MRSA and P. aeruginosa that had grown on the surface of PEEK membranes after they had been placed in three separate concentrations of the compound (300 μg/mL, 200 μg/mL and 100 μg/mL). Biofilms were observed every 30 minutes to see if they separated from the PEEK membrane.

On to `CC(C)(C)OC(=O)NCCCNCCCNCc1cc(CNCCCNCCCN)cc(CNCCCNCCCN)c1` [CZ-51], for which the “concentration at which total clearing was seen” value with MRSA [1] came out at 10 µg/mL; in [2], 50 µg/mL. Also, the “concentration at which partial clearing was seen” value in data set [2] amounted to 25 µg/mL. Further, the minimum inhibitory concentration (MIC) in the data set with MRSA [3] is ~1 µg/mL and ~1.88 µM; in the data set with P. aeruginosa ATCC 27853 it was ~6 µg/mL and ~11.3 µM. In addition, the MBEC in the data set with MRSA biofilm [4] was < 25 μg/mL and < 47 μM; in [5], ~35 μg/mL and ~65.92 μM. Also, the EBEC in the data set on MRSA biofilm [6] is ~250 μg/mL and ~470.88 μM; in data set [7], < 100 μg/mL and < 188.33 μM. In addition, the hemolytic activity entry with Columbia blood agar is reported as “none of these concentrations displayed hemolytic activity”. In addition, the “biofilm separated from the PEEK membrane by 24 hours” value in data set [8] is reported as “all detectable amounts of biofilm had separated”. In addition, in [8], the “biofilms separated from the PEEK membrane by 4 hours” value is listed as “approximately half”. Further, in [8], the “time at which biofilms began to separate from the PEEK membranes” value was no more than 2 h.

The values above are taken from patent US20150274639A1, “METHODS OF USE FOR COMPOSITIONS COMPRISING A BIOCIDAL POLYAMINE” (Curza Global, LLC, priority 2013, published 2015).
